The subject of test [1] is mouse T lymphocytes. Briefly: T-cell proliferation assay (ionomycin + PMA induced, tritiated thymidine uptake). It counts as cell-based, mouse (C57B1/6). As for the experimental part: The principle of this assay is to measure the proliferation of mouse T lymphocytes stimulated with the combination of ionomycin plus PMA.
Cells were pelleted by centrifugation at 1500 rpm for 8 minutes. Contaminating red cells were removed by treating the pellet with ammonium chloride lysing buffer (GIBCO) for 2 minutes at 4° C. Cold medium was added and cells were again centrifuged at 1500 rpm for 8 minutes. T lymphocytes were then isolated by separation of the cell suspension on nylon wool columns as follows: Nylon wool columns were prepared by packing approximately 4 grams of washed and dried nylon wool into 20 ml plastic syringes. The columns were sterilized by autoclaving at 250° F. for 30 minutes. Nylon wool columns were wetted with warm (37° C.) culture medium and rinsed with the same medium. Washed spleen cells resuspended in warm medium were slowly applied to the nylon wool. The columns were then incubated in an upright position at 37° C. for 1 hour. Non-adherent T lymphocytes were eluted from the columns with warm culture medium and the cell suspensions were spun as above.
The cell suspension was immediately distributed into 96 well flat-bottom microculture plates (Costar) at 200 μl/well. […] The proliferation of T lymphocytes was assessed by measurement of tritiated thymidine incorporation. After 44 hours of culturing, the cells were pulse-labelled with 2 μCi/well of tritiated thymidine (NEN, Cambridge, Mass.). After another 4 hours of incubation, cultures were harvested on glass fiber filters using a multiple sample harvester. Radioactivity of filter discs corresponding to individual wells was measured by standard liquid scintillation counting methods (Betacounter). Mean counts per minute of replicate wells were calculated and the results expressed as percent inhibition of tritiated thymidine uptake (proliferation) as follows: [formula]

The conditions of test [2]: reputed; EPO Publication No. 0184162; cited from earlier work.

“And” between values parts separate entries of the source, which are not always exact repeats. Identical values can stand only once. “Also recorded” adds a separate entry of the source. Like-named read-outs stand apart in the source and are kept apart here.

What is called IC50 is the midpoint of a concentration-inhibition curve. The term inhibition denotes the change of the read-out against control, counted positive when it falls. Regarding `CC[C@@H]1C=C2COC1(O)C[C@H](O)[C@@H](C)[C@@H](/C(C)=C/[C@@H]1CC[C@@H](O)[C@H](OC)C1)OC(=O)[C@@H]1CCCCN1C(=O)C(=O)[C@]1(O)O[C@H]([C@@H](OC)C[C@@H](C)C2)[C@@H](OC)C[C@H]1C` [Compound I], the IC50 is 1.92 ng/mL and 5.20 ng/mL and 4.80 ng/mL and 4.50 ng/mL in test [1] (5 additional experiments, individual values); 1.57 to 5.2 ng/mL in test [1] (Mus musculus, T-lymphocyte, based on 5 additional experiments, read-out: IC50, general range); 4.36 ± 1.7 nM in test [1] (Mus musculus, T-lymphocyte, mean of all 6 runs, ± SEM, read-out: mean IC50); 3.17 ng/mL in test [1] (Mus musculus, T-lymphocyte, run of the Table, read-out: IC50). Also, the “Inhibition of T-cell proliferation after addition of IL2” value in test [1] (50 units/ml recombinant IL2 at the initiation of culture) is listed as “reversed”. The inhibition at 0.0008 µM in test [1] (Mus musculus, T-lymphocyte, Compound I 0.8 nM, read-out: Percent of Inhibition) amounted to 16%. Moreover, the inhibition at 0.0016 µM in test [1] (Mus musculus, T-lymphocyte, Compound I 1.6 nM, read-out: Percent of Inhibition) was determined as 19%. The inhibition at 0.0031 µM in test [1] (Mus musculus, T-lymphocyte, Compound I 3.1 nM, read-out: Percent of Inhibition) worked out at 55%. The inhibition at 0.0062 µM in test [1] (Mus musculus, T-lymphocyte, Compound I 6.2 nM, read-out: Percent of Inhibition) stood at 78%. The inhibition at 0.0125 µM in test [1] (Mus musculus, T-lymphocyte, Compound I 12.5 nM, read-out: Percent of Inhibition) was 91%. Also, the inhibition at 0.025 µM in test [1] (Mus musculus, T-lymphocyte, Compound I 25.0 nM, read-out: Percent of Inhibition) was determined as 94%. Besides, in test [1] (Mus musculus, T-lymphocyte, Compound I 50.0 nM, read-out: Percent of Inhibition), the inhibition at 0.05 µM stood at 94%. Besides, in test [1] (qualitative statement), the immunosuppressant activity entry is given as “positive inhibition of T-cell activation; also recorded: positive immunosuppressive activity”.

In the case of `C=CC[C@@H]1/C=C(\C)C[C@H](C)C[C@H](OC)[C@H]2O[C@@](O)(C(=O)C(=O)N3CCCC[C@H]3C(=O)O[C@H](/C(C)=C/[C@@H]3CC[C@@H](O)[C@H](OC)C3)[C@H](C)[C@@H](O)CC1=O)[C@H](C)C[C@@H]2OC` [FK-506], the “times more effective than cyclosporin” value in test [2] was 100 times.

These data come from patent US5283183A, “Cyclic FR-900520 microbial biotransformation agent” (Merck & Co., Inc., priority 1992, dated 1994).
